Source: patent publication US20230381170A1, “METHOD FOR TREATING ALS/FTD THROUGH DEGRADATION OF RNA REPEAT EXPANSION” (University of Florida Research Foundation, Incorporated, priority 2020, published 2023)
Where two headings read alike, the source gives them in different places. One block for each molecule: values may come before it.

Legend:
[1] = target: r(G4C2)8; assay: Biolayer interferometry (BLI) binding; details: for Kd: BLI
Procedure: (§1) Biolayer Interferometry (BLI). BLI studies were performed similarly as previously described (12) using an Octet RED96. Briefly, 5′-biotinylated nucleic acids were folded by heating at 95° C. for 4 min in 10 mM sodium phosphate buffer, pH 7, followed by slowly cooling to room temperature. Then, to the folded RNA were added the following components: 1.386 mL 1×DPBS (21-031-CV, Corning), 180 μL freshly prepared 1% (w/v) BSA, 36 μL 1% (v/v) Tween-20, and 18 μL DMSO (1% final concentration) in a final volume of 1.8 mL. The final concentration of RNA was 0.5 μM. Separately, serial dilutions of the compound of interest were prepared in the same buffer.
(§2) The resulting curves were analyzed and processed using Octet Data Analysis software version 9.1 by subtracting the response of the sensors recorded upon incubation with solutions containing compound and no RNA (parallel reference). The data were then fitted assuming reversible binding using the entire time interval for association and dissociation using either 1:1 or the 2:1 heterogeneous binding curve fitting model. The reported Kd,n, kon,n and koff,n values represent the average of two independent experiments.

[2] = target: r(G2C4)8; assay: Biolayer interferometry (BLI) binding; details: BLI
Procedure: as §1
as §2, with “Streptavidin sensors (SA, #18-5019, ForteBio) were equilibrated with buffer for 10 min at room temperature using 96-well black microplate (Greiner; Catalog #: 655209). The following time intervals were used during data acquisition (30° C. with shaking at 1000 rpm): baseline step, 180 s; loading of RNA, 900 s; washing, 180 s; association of compound, 1800 s; and dissociation of compound, 1800 s. The resulting” for “The resulting”

[3] = target: r(G2C2)10; assay: Biolayer interferometry (BLI) binding; details: BLI; read-out: Kd, 1
Procedure: as §1
as §2, with “Streptavidin sensors (SA, #18-5019, ForteBio) were equilibrated with buffer for 10 min at room temperature using 96-well black microplate (Greiner; Catalog #: 655209). The following time intervals were used during data acquisition (30° C. with shaking at 1000 rpm): baseline step, 180 s; loading of RNA, 900 s; washing, 180 s; association of compound, 1800 s; and dissociation of compound, 1800 s. The resulting” for “The resulting”

[4] = target: d(G4C2)8; assay: Biolayer interferometry (BLI) binding; details: BLI
Procedure: as §1
as §2, with “Streptavidin sensors (SA, #18-5019, ForteBio) were equilibrated with buffer for 10 min at room temperature using 96-well black microplate (Greiner; Catalog #: 655209). The following time intervals were used during data acquisition (30° C. with shaking at 1000 rpm): baseline step, 180 s; loading of RNA, 900 s; washing, 180 s; association of compound, 1800 s; and dissociation of compound, 1800 s. The resulting” for “The resulting”

[5] = tested on: r(G4C2)8 and hnRNP H1 complex; assay: TR-FRET hnRNP H binding assay; assay type: biochemical; details: for IC50: inhibiting r(G4C2)8 and hnRNP H1 complex formation, 7 in the absence of Rnase L
Procedure: TR-FRET hnRNP H Binding Assay. TR-FRET assays were performed as previously described (12). The mixture was incubated for 15 min at room temperature and then hnRNP H1-His6 was added. After an additional 15 min incubation, streptavidin-XL665 (HTRF, Cisbio Bioassays) and anti-His6-Tb (HTRF, Cisbio Bioassays) were added to a final concentration of 40 nM and 0.44 ng/μL, respectively. After incubating for 1 h, TR-FRET was measured as previously described (12).

[6] = tested on: quadruplex form of r(G4C2) repeats, r(G2C2)10, d(G4C2)8, d(G2C2)10; assay: In vitro Chem-CLIP, other nucleic acids; assay type: binding
[7] = tested on: C9orf72 mRNA variants; assay: Cellular Chem-CLIP in patient-derived LCLs; assay type: cell-based, human; details: lymphoblastoid cells
Procedure: (§3) Cellular Chem-CLIP. For cellular Chem-CLIP studies, LCLs were grown in T-25 flasks while iPSCs were grown in 100 mm dishes. The cells were treated with Chem-CLIP probe (500 nM) overnight at 37° C. After removing the medium and washing with 1×PBS, fresh, ice-cold 1×PBS was added, and crosslinking was performed by UV irradiation at 365 nm for 10 min. The cells were collected, and total RNA was extracted with Qiagen micro RNEasy Kit per the manufacturer's protocol. Dynabeads MyOne Streptavidin C1 beads (Thermo Fisher Scientific 65001) were pre-loaded with biotin disulfide azide (Bioconjugate Technologies LLC dba Click Chemistry Tools) by incubating (10 μL of a 5 mM stock solution in DMSO in 500 μL PBS) with beads at room temperature for 30 min before magnetic capture. The beads were washed with High Salt Wash Buffer: (10 mM Tris-HCl pH 7.0, 1 mM EDTA, 4 M NaCl, 0.2% Tween-20) followed by two washes with Nanopure water. The click reaction between cross-linked RNAs and the Dynabeads displaying biotin disulfide azide was completed in a solution containing 25 mM HEPES, pH 7.1, 250 mM sodium ascorbate, 10 mM CuSO4, and 50 mM THPTA for 6 h at 37° C. […] The levels of C9orf72 mRNA in the purified, pull-down fraction were then measured by RT-qPCR as described above.

[8] = tested on: r(G4C2)8; assay: In vitro Chem-CLIP and C-Chem-CLIP; assay type: binding
Procedure: In vitro Chemical Cross-linking and Isolation by Pull-Down (Chem-CLIP) and Competitive Chemical Cross-linking and Isolation by Pull-Down (C-Chem-CLIP): Approximately 10,000 counts of ^32P 5′-end labeled r(G4C2)8 was folded in 1×Folding Buffer at 95° C. for 1 min. After cooling to room temperature, the Chem-CLIP probe at the desired concentrations (5, 10, 100, 500, 1000, 5000, 10000 nM) was added, and the samples were incubated at 37° C. for 18 h. For C-Chem-CLIP studies, the parent compound (10, 100, 500, 1000, 5000, 10000 nM) was incubated with RNA for 1 h before addition of the Chem-CLIP probe (500 nM).
Cross-linked RNAs were clicked to biotin […] azide (10 μL of a 5 mM stock solution in DMSO) by incubating in a solution containing 25 mM HEPES (pH 7.1), 250 mM sodium ascorbate, 10 mM CuSO4, and 50 mM THPTA (tris-hydroxypropyltriazolylmethylamine) for 6 h at 37° C. A 300 μL of streptavidin-agarose beads (Sigma-Aldrich) was washed three times and then resuspended in 1×PBS. An aliquot (20 μL) of the slurry was added to each sample, which was incubated for 1 h at room temperature. The samples were centrifuged and the supernatant containing unbound RNA was transferred to an unused tube. The beads were then washed three times with 1×PBS supplemented with 0.10% (v/v) Tween-20 and centrifuged, with each wash supernatant being added to the tube containing unbound RNA. The amounts of radioactivity in the supernatant and associated with the beads were quantified with a Beckman Coulter LS6500 Liquid Scintillation Counter.

[9] = tested on: C9orf72 mRNA variants; assay: Cellular Chem-CLIP in patient-derived iPSCs; assay type: cell-based, human
Procedure: as §3

[10] = tested on: C9orf72 intron 1 harboring r(G4C2)exp; assay: C9orf72 intron 1 RT-qPCR in patient-derived LCLs; assay type: cell-based, human; details: increasing concentrations
Procedure: Measuring Levels of C9orf72 and C9orf72 Variants by RT-qPCR. LCLs were seeded in 6-well plate (˜10^6 cells in 2 mL of growth medium) and incubated overnight at 37° C. Cells were then treated with various concentrations of compound for 24 h or with G4C2-ASO and Control-ASO (100 nM), delivered by transfection with Lipofectamine RNAiMax. RNA was extracted as described above and the expression of C9orf72 variants was determined by RT-qPCR. […] For compound treatment well, medium change was performed with fresh compound every 3-4 days. RNA was extracted as described above and the expression of C9orf72 variants was determined by RT-qPCR.

Kd ([1]; r(G4C2) repeats, read-out: Kd): 11000 ± 140 nM | avidity weaker than 1 ([1]; Kd relative to 1): ~37 fold
Structure (SMILES): C#CCn1c2ccc(OC)cc2c2c(C)c3cnccc3c(C)c21 [Compound 1b]

Kd ([1]; read-out: Kd): 50 ± 8 nM | Kd ([1]; read-out: Kd, 2): 120 nM | Kd ([2]; read-out: Kd, 1): 32 µM | Kd ([2]; read-out: Kd, 2): 120 µM | Kd [3]: 6 µM | Kd ([4]; read-out: Kd, 1): 1.3 µM | Kd ([4]; read-out: Kd, 2): 38 µM | more potent than 1 ([5]; IC50 relative to 1): 10 fold | IC50 [5]: ~1800 nM
Structure (SMILES): Cc1c2ccncc2c(C)c2c1[nH]c1ccc(OCCOCCOCCOCCOCCOCCOc3ccc4[nH]c5c(C)c6ccncc6c(C)c5c4c3)cc12 [Compound 2]

Structure (SMILES): C#CCCC1(CCC(=O)N(CCOCCOCCOc2ccc3[nH]c4c(C)c5ccncc5c(C)c4c3c2)CCOCCOCCOc2ccc3[nH]c4c(C)c5ccncc5c(C)c4c3c2)N=N1 [Compound 4]
pull-down of other nucleic acids more than 5 [6]: did not statistically significantly pull-down | enrichment of variants with r(G4C2)exp ([7]; 500 nM probe): 1.9±0.4 fold | enrichment of variants that do not contain the repeat expansion [7]: no enrichment | RNA pulled down ([8]; 500 nM compound): ~40% | enrichment of variants that do not contain the repeat expansion [9]: no enrichment | enrichment of variants with r(G4C2)exp ([9]; 500 nM probe): 2.3±0.2 fold

Structure (SMILES): C#CCCC1(CCC(=O)NCCC)N=N1 [Compound 5]
RNA pulled down ([8]; all concentrations tested, up to 10 μM): < 25%

Kd ([1]; exponent printed in row below, read-out: Kd, 1): 200 nM | Kd ([1]; read-out: Kd, 2): 10600 nM | IC50 [5]: 2300 ± 300 nM
Structure (SMILES): CC(=O)N(CCOCCOCCOc1ccc2[nH]c3c(C)c4ccncc4c(C)c3c2c1)CCOCCOCCOc1ccc2[nH]c3c(C)c4ccncc4c(C)c3c2c1 [Compound 6]
C9orf72 intron 1 levels on co-treatment with constant concentration of 7 [10]: dose-dependently restored
